Laboratory results taken from ChEMBL document CHEMBL1201862, “PubChem BioAssay data set” (2004).
Calls of active or inactive are those of the source.

Tests used:
[1] = cytotoxicity toward DRD oncogenic fibroblasts, dose response, cell-based, non-viral oncogenic, luminescence (AID 1934); format: functional; conditions: Homo sapiens
[2] = growth suppression of PTEN-null colon cells, dose response, cell-based, HCT116 PTEN knockout (AID 1047); format: functional;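 note: HCT116 colon tumor cells with PTEN knocked out; cells exposed to compound for 60 hours before readout; potency for loss of cell viability measured by luminescence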
[3] = growth suppression of beta-catenin-knockout colon cells, dose response, cell-based, HCT116, human colon tumor (AID 1045); format: functional;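 note: HCT116 colon tumor cells with beta catenin knocked out; cells exposed to compound for 60 hours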
Hexokinase HKDC1 = target: T1, Hexokinase HKDC1 (Homo sapiens, UniProt Q2TB90); test: HKDC1 hexokinase inhibitors, dose response, biochemical, W721R variant (AID 504729); format: functional
T1 sequence (Q2TB90 whole entry): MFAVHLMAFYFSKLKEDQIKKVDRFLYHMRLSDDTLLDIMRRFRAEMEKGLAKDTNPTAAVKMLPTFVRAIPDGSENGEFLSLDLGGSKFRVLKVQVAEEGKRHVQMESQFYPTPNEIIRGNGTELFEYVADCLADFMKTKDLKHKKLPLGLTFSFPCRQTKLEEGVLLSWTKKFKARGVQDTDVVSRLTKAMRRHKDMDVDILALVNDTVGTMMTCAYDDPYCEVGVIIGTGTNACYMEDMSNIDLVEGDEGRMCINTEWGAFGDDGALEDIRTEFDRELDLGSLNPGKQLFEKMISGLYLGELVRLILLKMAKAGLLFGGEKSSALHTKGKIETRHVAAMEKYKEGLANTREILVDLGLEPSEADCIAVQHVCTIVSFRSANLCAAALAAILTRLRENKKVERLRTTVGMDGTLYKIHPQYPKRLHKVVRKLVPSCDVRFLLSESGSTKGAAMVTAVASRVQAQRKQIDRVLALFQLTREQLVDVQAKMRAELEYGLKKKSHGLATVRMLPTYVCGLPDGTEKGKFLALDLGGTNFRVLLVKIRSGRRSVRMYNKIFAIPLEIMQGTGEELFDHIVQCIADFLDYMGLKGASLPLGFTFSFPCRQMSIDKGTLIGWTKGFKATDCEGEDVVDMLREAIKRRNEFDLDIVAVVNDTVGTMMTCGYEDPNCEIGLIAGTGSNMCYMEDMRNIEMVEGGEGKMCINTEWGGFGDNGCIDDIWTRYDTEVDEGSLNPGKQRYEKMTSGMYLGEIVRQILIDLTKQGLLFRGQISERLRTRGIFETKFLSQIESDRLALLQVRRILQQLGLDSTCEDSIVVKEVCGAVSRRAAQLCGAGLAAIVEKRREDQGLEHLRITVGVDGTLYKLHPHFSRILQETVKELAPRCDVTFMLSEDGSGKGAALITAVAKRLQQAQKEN

BJ [4] = test: cytotoxicity toward BJ-TERT fibroblasts, dose response, cell-based, RAS-independent, luminescence (AID 1933); format: functional; conditions: Homo sapiens
[5] = target: T2, Mitochondrial peptide methionine sulfoxide reductase (Bos taurus, UniProt P54149); format: functional;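 note: absorbance read-out, biochemical high-throughput dose-response screen for MsrA inhibitors, confirmatory; recombinant bovine MsrA coupled to E. coli TrxB with NADPH and selenocystamine; potency is for inhibitors of MsrA activity on DMSO substrate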
T2 sequence (P54149 whole entry): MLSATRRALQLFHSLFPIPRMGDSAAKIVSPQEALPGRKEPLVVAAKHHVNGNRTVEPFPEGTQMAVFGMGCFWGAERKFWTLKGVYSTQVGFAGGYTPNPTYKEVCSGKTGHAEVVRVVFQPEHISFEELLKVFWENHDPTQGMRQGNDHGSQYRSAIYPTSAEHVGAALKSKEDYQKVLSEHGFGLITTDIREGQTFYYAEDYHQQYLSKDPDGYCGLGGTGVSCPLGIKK

[6] = target: T3, Replicative DNA helicase DnaB (Mycobacterium tuberculosis, UniProt P9WMR3); test: DnaB intein splicing inhibitors, dose response, biochemical, cell-free fluorescence (AID 449749); format: functional
T3 sequence (P9WMR3 whole entry): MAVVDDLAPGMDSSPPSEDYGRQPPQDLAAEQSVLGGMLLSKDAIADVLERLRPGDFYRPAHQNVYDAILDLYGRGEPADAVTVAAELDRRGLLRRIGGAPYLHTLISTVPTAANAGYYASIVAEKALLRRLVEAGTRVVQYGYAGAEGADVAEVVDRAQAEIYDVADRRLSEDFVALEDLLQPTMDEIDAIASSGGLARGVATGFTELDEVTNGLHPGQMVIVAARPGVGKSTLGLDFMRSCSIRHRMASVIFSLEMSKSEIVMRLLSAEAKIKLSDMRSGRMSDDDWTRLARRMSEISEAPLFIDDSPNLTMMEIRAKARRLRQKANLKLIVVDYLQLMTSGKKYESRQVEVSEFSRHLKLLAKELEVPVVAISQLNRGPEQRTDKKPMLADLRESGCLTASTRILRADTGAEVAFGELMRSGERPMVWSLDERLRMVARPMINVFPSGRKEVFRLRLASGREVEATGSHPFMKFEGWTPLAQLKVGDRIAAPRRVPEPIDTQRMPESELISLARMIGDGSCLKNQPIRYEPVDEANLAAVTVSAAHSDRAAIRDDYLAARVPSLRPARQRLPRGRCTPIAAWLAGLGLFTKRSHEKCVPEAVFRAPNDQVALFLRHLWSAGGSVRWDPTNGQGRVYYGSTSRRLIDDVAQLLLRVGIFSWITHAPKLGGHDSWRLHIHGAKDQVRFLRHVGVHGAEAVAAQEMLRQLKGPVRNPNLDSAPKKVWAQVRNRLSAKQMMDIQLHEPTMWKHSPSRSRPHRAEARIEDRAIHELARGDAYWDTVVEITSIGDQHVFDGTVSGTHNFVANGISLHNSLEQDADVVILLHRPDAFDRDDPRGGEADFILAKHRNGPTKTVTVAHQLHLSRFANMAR

Protein RecA = target: T4, Protein RecA (Mycobacterium tuberculosis, UniProt P9WHJ3); test: Fluorescence Cell-Free Homogeneous Dose Retest to Identify Inhibitors of RecA-Intein Splicing Activity. [Related pubchem assays (depositor defined):AID2097, AID2223, AID489010, AID492950]; format: functional
T4 sequence (P9WHJ3 whole entry): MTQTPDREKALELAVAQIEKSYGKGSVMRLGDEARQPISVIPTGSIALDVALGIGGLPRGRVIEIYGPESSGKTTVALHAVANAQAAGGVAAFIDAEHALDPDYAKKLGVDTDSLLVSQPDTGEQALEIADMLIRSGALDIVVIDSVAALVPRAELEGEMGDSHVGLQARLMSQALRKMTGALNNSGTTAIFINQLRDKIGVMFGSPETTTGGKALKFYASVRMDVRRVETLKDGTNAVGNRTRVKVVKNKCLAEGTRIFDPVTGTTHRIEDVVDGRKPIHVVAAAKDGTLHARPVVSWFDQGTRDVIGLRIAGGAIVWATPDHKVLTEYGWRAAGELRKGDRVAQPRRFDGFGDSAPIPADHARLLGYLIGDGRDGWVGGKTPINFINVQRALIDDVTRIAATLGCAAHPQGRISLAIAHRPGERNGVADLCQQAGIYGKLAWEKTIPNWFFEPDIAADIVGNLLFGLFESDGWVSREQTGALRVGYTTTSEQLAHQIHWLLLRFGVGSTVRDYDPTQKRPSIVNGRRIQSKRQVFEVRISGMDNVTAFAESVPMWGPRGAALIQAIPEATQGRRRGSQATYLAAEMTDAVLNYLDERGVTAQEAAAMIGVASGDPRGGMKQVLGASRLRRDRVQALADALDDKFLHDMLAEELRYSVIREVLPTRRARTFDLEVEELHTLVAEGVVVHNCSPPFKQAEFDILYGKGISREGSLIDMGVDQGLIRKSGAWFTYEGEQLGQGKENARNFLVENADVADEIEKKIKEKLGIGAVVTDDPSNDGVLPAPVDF

BJ [7] = test: cytotoxicity toward BJ-TERT-LT-ST fibroblasts, dose response, cell-based, RAS-independent, luminescence (AID 1935); format: functional; conditions: Homo sapiens;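 note: BJ fibroblasts immortalized with TERT plus LT and ST oncogenes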
BJ [8] = test: cells; format: functional, cell-based; conditions: Homo sapiens
[9] = target: T5, Apoptotic protease-activating factor 1 (Homo sapiens, UniProt O14727); test: SAR analysis of small molecule Activators of Apaf-1 in a Fluorescent assay.; format: functional; conditions: read-out: EC50_Mean;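 note: caspase-3 cleavage of fluorogenic Rh110 DEVD substrate downstream of apoptosome activation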
T5 sequence (O14727 whole entry): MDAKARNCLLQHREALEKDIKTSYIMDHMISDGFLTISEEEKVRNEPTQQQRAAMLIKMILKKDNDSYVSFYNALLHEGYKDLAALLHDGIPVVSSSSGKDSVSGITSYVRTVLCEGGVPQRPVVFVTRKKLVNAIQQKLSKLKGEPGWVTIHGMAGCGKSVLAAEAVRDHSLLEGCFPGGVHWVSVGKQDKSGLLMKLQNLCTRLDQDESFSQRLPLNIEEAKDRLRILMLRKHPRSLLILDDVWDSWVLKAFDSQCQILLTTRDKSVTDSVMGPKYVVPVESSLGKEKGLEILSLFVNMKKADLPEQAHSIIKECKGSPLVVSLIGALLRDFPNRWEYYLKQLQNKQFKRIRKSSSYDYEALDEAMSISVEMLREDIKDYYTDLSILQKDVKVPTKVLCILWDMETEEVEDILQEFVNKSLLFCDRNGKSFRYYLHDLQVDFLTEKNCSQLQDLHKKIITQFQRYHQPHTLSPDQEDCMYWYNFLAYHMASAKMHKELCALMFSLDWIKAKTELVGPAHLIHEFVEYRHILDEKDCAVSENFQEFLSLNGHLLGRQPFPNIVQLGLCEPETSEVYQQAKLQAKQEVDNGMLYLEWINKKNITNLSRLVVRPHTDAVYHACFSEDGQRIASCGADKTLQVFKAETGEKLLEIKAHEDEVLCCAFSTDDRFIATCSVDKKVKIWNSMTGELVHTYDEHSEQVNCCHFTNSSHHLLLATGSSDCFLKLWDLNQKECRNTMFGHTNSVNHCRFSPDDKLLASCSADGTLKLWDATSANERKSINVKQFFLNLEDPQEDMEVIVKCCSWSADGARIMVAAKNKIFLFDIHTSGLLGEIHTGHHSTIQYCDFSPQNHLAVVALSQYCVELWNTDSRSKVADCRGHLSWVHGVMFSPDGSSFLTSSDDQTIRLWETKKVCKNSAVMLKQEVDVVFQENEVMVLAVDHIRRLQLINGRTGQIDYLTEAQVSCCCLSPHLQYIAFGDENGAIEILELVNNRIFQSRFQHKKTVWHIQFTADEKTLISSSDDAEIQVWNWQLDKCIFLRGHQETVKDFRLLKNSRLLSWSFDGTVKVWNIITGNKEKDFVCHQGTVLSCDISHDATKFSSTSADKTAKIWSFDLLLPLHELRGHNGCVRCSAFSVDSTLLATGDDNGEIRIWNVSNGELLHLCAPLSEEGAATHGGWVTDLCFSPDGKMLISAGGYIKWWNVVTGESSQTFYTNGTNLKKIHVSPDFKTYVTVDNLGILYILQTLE

[10] = target: T6, ATP-dependent translocase ABCB1 (Homo sapiens, UniProt P08183); test: ABCG2 efflux pump inhibitor potency, dose response, Ig-MXP3 cells, JC-1, flow cytometry, set 2 (AID 504566); format: functional; conditions: read-out: EC50_MICROM_;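 note: flow cytometry median green fluorescence of retained JC-1 dye; potency of efflux pump inhibition measured as rising substrate retention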
T6 sequence (P08183 whole entry): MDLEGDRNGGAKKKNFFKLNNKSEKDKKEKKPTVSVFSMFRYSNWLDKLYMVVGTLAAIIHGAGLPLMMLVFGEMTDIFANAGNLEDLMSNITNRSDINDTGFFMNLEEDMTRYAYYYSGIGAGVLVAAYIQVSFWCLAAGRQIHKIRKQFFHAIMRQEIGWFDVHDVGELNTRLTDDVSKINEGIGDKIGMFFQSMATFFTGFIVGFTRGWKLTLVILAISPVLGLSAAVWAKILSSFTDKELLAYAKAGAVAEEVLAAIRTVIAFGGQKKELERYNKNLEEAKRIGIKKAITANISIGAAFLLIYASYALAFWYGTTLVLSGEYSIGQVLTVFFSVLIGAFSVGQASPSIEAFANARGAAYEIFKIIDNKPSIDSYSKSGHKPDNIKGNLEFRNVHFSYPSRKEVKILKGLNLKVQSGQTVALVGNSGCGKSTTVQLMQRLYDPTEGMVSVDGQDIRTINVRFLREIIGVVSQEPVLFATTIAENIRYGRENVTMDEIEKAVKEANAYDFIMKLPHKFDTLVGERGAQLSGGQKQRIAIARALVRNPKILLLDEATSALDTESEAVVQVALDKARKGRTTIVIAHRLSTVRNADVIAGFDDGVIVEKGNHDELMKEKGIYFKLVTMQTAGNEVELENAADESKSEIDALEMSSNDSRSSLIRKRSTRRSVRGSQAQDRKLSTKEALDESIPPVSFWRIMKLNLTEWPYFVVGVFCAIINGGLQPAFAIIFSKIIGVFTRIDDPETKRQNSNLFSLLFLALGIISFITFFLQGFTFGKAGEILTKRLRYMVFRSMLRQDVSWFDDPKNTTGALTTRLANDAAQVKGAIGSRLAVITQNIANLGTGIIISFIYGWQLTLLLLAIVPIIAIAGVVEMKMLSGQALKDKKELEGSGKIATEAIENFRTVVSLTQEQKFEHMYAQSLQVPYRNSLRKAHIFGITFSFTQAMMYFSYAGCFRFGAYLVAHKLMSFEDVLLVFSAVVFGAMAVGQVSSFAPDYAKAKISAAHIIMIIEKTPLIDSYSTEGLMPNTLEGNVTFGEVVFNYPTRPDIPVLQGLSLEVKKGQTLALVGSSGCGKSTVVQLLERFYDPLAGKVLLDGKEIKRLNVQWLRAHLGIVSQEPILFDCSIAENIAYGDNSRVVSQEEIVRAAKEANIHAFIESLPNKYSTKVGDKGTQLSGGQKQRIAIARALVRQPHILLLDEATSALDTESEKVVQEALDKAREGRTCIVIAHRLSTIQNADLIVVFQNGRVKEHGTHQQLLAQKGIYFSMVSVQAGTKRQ

[11] = target: T6, ATP-dependent translocase ABCB1; test: ABCB1 efflux inhibitor potency, dose response, Jurkat-DNR cells, JC-1, flow cytometry, set 2 (AID 504569); format: functional; conditions: read-out: EC50_MICROM_;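 note: potency of pump inhibitors that raise cellular JC-1 green fluorescence up to the nicardipine level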
H9c2 = test: cells; format: functional, cell-based; conditions: Rattus norvegicus, H9c2, Myocardium;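 note: confirmatory concentration-response retest of ultra-high-throughput screening hits for modulation of myocardial damage; cell death induced by hydrogen peroxide oxidative stress; compound pretreatment for 60 min then peroxide exposure for 2 h; potency is for protecting the cells against peroxide damage rather than for killing them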
[12] = target: T7, Carboxy-terminal domain RNA polymerase II polypeptide A small phosphatase 1 (Homo sapiens, UniProt Q9GZU7); test: inhibitors of CTDSP1, concentration-response testing, biochemical assay, absorbance-based, actives from ultra-high-throughput screening (AID 540297); format: functional
T7 sequence (Q9GZU7 whole entry): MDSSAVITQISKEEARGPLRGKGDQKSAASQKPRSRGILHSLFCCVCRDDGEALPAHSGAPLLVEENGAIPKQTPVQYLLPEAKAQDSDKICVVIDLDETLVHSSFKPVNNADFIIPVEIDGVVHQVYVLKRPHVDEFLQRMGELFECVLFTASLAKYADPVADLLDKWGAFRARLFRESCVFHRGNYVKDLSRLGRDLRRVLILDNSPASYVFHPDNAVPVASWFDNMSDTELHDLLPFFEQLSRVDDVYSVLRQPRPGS

[13] = target: T8, Low molecular weight phosphotyrosine protein phosphatase (Homo sapiens, UniProt P24666); format: functional; conditions: read-out: IC50_Mean
T8 sequence (P24666 whole entry): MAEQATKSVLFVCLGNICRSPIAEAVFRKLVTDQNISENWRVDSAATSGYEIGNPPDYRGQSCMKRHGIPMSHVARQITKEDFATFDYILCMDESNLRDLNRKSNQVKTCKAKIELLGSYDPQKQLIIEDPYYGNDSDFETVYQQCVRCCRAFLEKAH

[14] = target: T8, Low molecular weight phosphotyrosine protein phosphatase; format: functional; conditions: read-out: IC50_Mean; remark: listed apart in the source
[15] = target: Potassium voltage-gated channel subfamily KQT member 2 (Rattus norvegicus, UniProt O88943); test: KCNQ2 potassium channel inhibitors, dose response, cell-based, automated electrophysiology, set II, rat KCNQ2 (AID 588637); format: functional
Sequence of Potassium voltage-gated channel subfamily KQT member 2 (O88943 whole entry): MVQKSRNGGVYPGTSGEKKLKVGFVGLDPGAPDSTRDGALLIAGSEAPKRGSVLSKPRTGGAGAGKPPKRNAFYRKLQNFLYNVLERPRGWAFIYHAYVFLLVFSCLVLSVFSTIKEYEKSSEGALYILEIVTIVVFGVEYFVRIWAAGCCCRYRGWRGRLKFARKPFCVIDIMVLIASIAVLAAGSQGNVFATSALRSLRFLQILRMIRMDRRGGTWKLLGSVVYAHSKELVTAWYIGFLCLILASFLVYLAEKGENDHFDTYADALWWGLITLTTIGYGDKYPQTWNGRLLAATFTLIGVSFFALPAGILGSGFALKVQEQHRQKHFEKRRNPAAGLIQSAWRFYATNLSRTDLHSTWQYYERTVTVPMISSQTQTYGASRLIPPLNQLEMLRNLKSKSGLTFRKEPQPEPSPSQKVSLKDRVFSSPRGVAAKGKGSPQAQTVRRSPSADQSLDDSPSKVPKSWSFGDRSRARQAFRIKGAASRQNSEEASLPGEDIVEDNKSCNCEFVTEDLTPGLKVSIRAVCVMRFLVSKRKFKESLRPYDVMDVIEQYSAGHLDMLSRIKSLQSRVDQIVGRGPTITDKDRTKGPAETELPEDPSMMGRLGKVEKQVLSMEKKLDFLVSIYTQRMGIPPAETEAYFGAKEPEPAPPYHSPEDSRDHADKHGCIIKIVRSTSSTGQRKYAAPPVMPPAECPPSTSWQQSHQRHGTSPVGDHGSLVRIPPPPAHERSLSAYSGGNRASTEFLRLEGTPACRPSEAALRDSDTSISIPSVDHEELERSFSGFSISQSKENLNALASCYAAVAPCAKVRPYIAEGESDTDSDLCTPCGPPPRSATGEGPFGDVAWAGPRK

[16] = target: Voltage-dependent T-type calcium channel subunit alpha-1H (Homo sapiens, UniProt O95180); format: functional;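 note: channel activity triggered by adding a high calcium stimulation buffer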
Sequence of Voltage-dependent T-type calcium channel subunit alpha-1H (O95180 whole entry): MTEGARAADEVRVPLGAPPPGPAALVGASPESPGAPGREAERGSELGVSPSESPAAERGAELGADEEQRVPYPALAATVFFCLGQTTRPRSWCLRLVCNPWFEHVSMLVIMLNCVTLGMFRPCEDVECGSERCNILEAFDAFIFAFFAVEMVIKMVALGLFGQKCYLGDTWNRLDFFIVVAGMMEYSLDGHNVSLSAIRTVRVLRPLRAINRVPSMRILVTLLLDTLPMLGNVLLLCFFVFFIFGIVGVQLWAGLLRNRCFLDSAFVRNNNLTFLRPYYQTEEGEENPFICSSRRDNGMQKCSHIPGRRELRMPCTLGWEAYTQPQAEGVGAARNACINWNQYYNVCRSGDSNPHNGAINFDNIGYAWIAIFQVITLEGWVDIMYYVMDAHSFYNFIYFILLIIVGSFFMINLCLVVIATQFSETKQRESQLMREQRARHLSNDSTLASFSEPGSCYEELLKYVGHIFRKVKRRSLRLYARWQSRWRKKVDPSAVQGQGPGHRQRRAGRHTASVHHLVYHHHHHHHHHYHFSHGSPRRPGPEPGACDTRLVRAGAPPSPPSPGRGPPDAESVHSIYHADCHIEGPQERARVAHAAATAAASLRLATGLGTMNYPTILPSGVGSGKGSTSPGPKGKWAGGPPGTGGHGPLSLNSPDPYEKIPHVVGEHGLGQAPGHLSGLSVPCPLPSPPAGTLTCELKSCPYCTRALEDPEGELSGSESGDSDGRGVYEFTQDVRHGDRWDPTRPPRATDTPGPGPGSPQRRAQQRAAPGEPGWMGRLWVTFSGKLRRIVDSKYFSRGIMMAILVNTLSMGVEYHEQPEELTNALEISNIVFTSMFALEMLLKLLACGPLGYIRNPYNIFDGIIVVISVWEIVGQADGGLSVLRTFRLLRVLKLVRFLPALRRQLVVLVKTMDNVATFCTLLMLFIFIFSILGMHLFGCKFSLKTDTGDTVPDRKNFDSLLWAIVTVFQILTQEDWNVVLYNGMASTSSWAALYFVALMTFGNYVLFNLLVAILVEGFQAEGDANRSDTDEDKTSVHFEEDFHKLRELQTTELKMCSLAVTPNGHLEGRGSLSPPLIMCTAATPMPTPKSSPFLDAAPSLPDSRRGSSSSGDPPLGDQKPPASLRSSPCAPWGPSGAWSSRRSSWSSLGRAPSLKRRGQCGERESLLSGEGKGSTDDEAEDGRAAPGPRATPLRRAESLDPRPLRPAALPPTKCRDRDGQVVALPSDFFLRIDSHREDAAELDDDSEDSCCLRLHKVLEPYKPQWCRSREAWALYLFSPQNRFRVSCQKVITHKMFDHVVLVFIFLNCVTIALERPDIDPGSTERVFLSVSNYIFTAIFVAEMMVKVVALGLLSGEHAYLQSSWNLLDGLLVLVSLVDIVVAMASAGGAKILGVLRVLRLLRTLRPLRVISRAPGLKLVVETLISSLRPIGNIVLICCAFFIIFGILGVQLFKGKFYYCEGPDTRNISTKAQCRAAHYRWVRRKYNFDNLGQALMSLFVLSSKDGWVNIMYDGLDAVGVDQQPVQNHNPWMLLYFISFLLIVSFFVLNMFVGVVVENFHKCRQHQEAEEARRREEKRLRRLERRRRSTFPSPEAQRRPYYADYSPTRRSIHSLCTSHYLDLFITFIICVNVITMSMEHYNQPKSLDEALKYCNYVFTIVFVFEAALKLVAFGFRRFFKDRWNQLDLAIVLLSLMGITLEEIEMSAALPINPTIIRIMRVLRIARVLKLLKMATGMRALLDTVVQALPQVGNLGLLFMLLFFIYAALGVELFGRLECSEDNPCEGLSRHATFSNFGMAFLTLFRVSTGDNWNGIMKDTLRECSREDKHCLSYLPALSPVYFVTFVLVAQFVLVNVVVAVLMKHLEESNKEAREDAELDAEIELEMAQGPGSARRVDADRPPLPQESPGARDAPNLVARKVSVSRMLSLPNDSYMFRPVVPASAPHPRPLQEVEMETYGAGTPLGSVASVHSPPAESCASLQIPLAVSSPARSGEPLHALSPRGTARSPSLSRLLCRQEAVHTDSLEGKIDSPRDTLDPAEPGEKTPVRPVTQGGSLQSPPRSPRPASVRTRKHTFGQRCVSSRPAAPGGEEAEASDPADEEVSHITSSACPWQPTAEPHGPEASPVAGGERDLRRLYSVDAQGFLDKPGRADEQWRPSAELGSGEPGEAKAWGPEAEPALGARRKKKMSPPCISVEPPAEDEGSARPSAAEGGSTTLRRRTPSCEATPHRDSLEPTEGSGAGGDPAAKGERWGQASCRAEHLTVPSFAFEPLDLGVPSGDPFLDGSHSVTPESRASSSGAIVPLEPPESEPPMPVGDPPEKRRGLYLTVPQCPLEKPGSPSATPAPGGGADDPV

[17] = target: Nuclear receptor subfamily 5 group A member 2 (Homo sapiens, UniProt O00482); format: functional, cell-based;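 note: HEK293T cells transfected with LRH-1 and a StAR promoter luciferase reporter; potency for inhibitors that lower LRH-1 driven reporter light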
Sequence of Nuclear receptor subfamily 5 group A member 2 (O00482 whole entry): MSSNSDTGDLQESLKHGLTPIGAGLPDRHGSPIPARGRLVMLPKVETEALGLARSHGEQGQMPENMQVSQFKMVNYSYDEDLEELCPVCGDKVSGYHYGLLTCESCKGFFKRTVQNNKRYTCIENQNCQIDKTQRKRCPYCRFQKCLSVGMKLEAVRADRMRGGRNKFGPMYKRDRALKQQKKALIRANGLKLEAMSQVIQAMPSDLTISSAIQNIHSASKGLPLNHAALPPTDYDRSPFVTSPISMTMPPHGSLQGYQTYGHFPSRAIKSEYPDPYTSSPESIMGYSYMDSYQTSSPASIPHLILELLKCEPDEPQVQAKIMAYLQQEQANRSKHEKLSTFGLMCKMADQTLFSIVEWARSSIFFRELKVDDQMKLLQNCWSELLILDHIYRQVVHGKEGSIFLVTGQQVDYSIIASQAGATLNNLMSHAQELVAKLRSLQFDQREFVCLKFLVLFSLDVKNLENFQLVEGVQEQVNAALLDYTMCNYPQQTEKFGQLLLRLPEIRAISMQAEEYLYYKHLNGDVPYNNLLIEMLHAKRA

Steroidogenic factor 1 = Steroidogenic factor 1 (Homo sapiens, UniProt Q13285); test: Counterscreen for inverse agonists of the liver receptor homolog-1 (LRH-1; NR5A2): Luminescence-based cell-based high throughput dose response assay to identify inverse agonists of the Steroidogenic Factor 1 Nuclear Receptor (SF1; NR5A1).; format: functional
[18] = StAR promoter reporter inhibition counter-screen, dose response, counter-screen for LRH-1 inverse agonist project, cell-based, luminescence, luciferase reporter (AID 651969); format: functional

With O=C(C1=C(c2ccccc2)C(=O)c2ccccc2C1=O)c1ccccc1 the EC50 [1] was > 150 µM (not active), the EC50 [2] was 2.73 µM (active) and the EC50 [3] was 2.72 µM (active). The IC50 (Hexokinase HKDC1) was 10.1 µM (active), the EC50 (BJ [4]) was 5.95 µM (inconclusive) and the IC50 [5] was 13.8 µM (inactive). For the same molecule, the AC50 [6] was 8.2 µM (active), the EC50 (Protein RecA) was 0.862 µM (active) and the EC50 (BJ [7]) was 8.65 µM (inconclusive). For the same molecule, the EC50 (BJ [8]) was 7.17 µM (active).

With O=C(O)c1coc(-c2ccc(-c3ccccc3)cc2)n1 the EC50 [9] was > 100 µM (inactive).

With O=C(c1ccoc1)N1CCN(c2cc(-c3ccncc3)nc3cc(-c4cccc(Cl)c4)nn23)CC1 the EC50 [10] was 2.21 µM (active), the EC50 [11] was 3.43 µM (active) and the IC50 (H9c2) was > 79 µM (inactive).

With Cc1cc2oc(C(=O)NCCc3ccc(S(N)(=O)=O)cc3)c(C)c2cc1C the IC50 [12] was > 80 µM (inactive), the IC50 [13] was 48.1 µM (inactive) and the IC50 [14] was 29.9 µM (inactive).

For CCOc1ccc(-c2nc(CSCC(=O)NC3CCCc4ccccc43)c(C)o2)cc1 (configuration not stated), the IC50 [15] was 1.51 µM (active) and the EC50 [16] was 3.26 µM (active).

In the case of CC(=O)Nc1ccc(NC(=O)CSc2nnc(-c3cc4ccccc4o3)n2C)cc1, the IC50 [17] was 35.9 µM (inactive), the IC50 (Steroidogenic factor 1) was 18.2 µM (inactive) and the IC50 [18] was 35.9 µM (inactive).
